From patent US20190015312A1, “COSMETIC FORMULATIONS” (KIMBERLY-CLARK WORLDWIDE, INC., priority 2015, published 2019)

System: volunteer human subjects
Assay: Human clinical anti-perspirant study, gravimetric perspiration on lower back
Assay type: in vivo
Details: Table D study; Acetyl Hexapeptide-30 and Pentapeptide-18 tested in combination
Procedure: The effectiveness of the peptide material at addressing perspiration was evaluated in a human clinical study. The screening of various potential sweat-reducing materials was determined using at least 20 volunteer human subjects. Twenty-four subjects were planned for enrollment into the study to ensure that 20 subjects completed testing. Baseline screening was performed on up to 40 subjects to ensure a sufficient number of subjects were enrolled in the treatment application phase who met minimum sweat production criteria of 50 mg over a 20-minute collection period. As shown in Table C and Table D, each subject had seven test materials randomly applied to the lower back in 2 inch by 2 inch treatment application areas and one site was left untreated on each subject as a control. The study subjects participated in a 4-day test period consisting of four, supervised treatment applications, spaced 24-hours apart, and one post treatment application sweat collection period 1-hour post-product application on Day 4. The study staff visually assessed the application sites, and applied each of the test materials to the backs of the subjects. […] Subjects were instructed to not leave the room during the approximately 60-minute test period. • Absorbent gauze sponges, 2 inch by 2 inch (two 4-ply sponges, Avant Gauze® Sponges), were applied to the eight sites on the lower back of the subjects. Sponges were occluded on the site using 3MTM BlendermTM Medical Tape, and affixed to the site using Scanpor® Paper Tape. • The sponges remained in place for a 20-minute acclimation period. […] Subjects were not allowed to consume water during this 20-minute period. • Following the 20-minute period, the sponges with the 3MTM BlendermTM Medical Tape were removed and sealed in a bag or container for weighing within 1-hour of removal. • After exiting the temperature-controlled room, the subjects again sat in normal ambient indoor temperature for at least 20-minutes, and trained technicians determined the body temperature, pulse, and blood pressure of each subject. […]

Substance	Activity of the peptide in the presence of a salt based cosmetic astringent, in words
Acetyl Dipeptide-1 Cetyl Ester	high activity
Acetyl Hexapeptide-30	high activity
Pentapeptide-18	high activity
